According to US7645882B2, “Inhibitor of protein modification products formation” (priority 2003, dated 2010):

tested on: pentosidine; test: Pentosidine production inhibiting effect with BSA and arabinose; format: biochemical; settings: BSA and arabinose instead of plasma
Method: Fresh heparinized plasma samples were obtained after informed consent from hemodialysis patients prior to the dialysis session, and filtrated and sterilized. To the plasma (450 μL), there was added the solution of TM-2002 in dimethylsurphoxide (50 μL) (final concentration: 0.8, 2.0, 5.0 mM) incubated at 37° C. for one week. Then, the amount of pentosidine was measured.
Measurement of the amount of pentosidine was made as follows: to each incubated sample (50 μL) was added an equal volume of 10% trichloroacetic acid, followed by centrifugation at 5000 g for 5 minutes; after removal of the supernatant, the pellet was washed by 5% trichloroacetic acid (300 μL); the pellet was dried under reduced pressure and then subjected to hydrolysis in 6N HCl solution (100 μL) at 110° C. under nitrogen atmosphere for 16 hours; to the hydrolysate, 5N NaOH (100 μL) and 0.5 M phosphate buffer (pH 7.4) (200 μL) were added, followed by filtration through a porefilter with a pore size of 0.5 μm and dilution with PBS. The concentration of free pentosidine was determined by reversed-phase HPLC using a fluorescence detector (Miyata, T. et al.: Proc. Natl. Acad. Sci. USA, Vol. 93, p. 2353-2358, 1996). The effluent was monitored at 335/385 nm of excitation/emission wavelength. Synthetic pentosidine was used as the standard. The detection limit of pentosidine was 0.1 pmol/mg protein.
The plasma from patients was substituted to BSA and arabinose, and the pentosidine production inhibiting effect of another compounds (I) or (II) was measured in the same manner as [Test Examination 1]. Therein, “-” means that the examination was not carried out.

Structure (SMILES) | Pentosidine production rate in 5 mM of medicament (%)
CC1=NN(c2ccccc2)C(=O)C1CCC(=O)O (centres unmarked) [compound 7, 3-(3-methyl-5-oxo-1-penyl-4,5-dihydro-1H-pyrazol-4-yl)-propionic acid] | 64.64
CC1=NN(c2ccccc2)C(=O)C1C(c1ccccc1)c1c(C)nn(-c2ccccc2)c1O (centres unmarked) [compound 9, 4-[(5-hydroxy-3-methyl-1-phenyl-1H-pyrazol-4-yl)-phenyl-methyl]-5-methyl-2-phenyl-2,4-dihydro-pyrazol-3-one] | 7.52
CC(=O)NC1C(=O)N(c2ccccc2)N=C1C (centres unmarked) [compound 12, N-(3-methyl-5-oxo-1-phenyl-4,5-dihydro-1H-pyrazol-4-yl)-acetamide] | 54.21
CC1=NN(c2cccc([N+](=O)[O-])c2)C(=O)C1Sc1nnnn1-c1ccccc1 (centres unmarked) [compound 13, 5-methyl-2-(3-nitro-phenyl)-4-(1-phenyl-1H-tetrazol-5-yl-sulfanil)-2,4-dihydro-pyrazol-3-one] | 74.66
O=C(NC1=NN(c2ccccc2)C(=O)C1Sc1nnnn1-c1ccccc1)c1ccccc1 (centres unmarked) [compound 14, N-[5-oxo-1-phenyl-4-(1-phenyl-1H-tetrazol-5-yl-sulfanil)-4,5-dihydro-1H-pyrazol-3-yl]-benzamide] | 61.27
CC1=NN(c2ccccc2)C(=O)C1C1C(=O)N(c2ccccc2)N=C1C (centres unmarked) [compound 17, 5,5′-dimethyl-2,2′-diphenyl-2,4,2′,4′-tetrahydro-[4,4′]-bipyrazol-3,3′-dione] | 60.96
COc1ccc(-c2csc(SC3C(=O)N(c4ccccc4)N=C3C)n2)cc1 (centres unmarked) [compound 19, 4-[4-(4-methoxy-phenyl)-thiazole-2-yl-sulfanil]-5-methyl-2-phenyl-2,4-dihydro-pyrazol-3-one] | 40.19
CCCC1=NN(c2ccccc2)C(=O)C1CC(=O)c1ccccc1 (centres unmarked) [compound 20, 4-(2-oxo-2-phenyl-ethyl)-2-phenyl-5-propyl-2,4-dihydro-pyrazol-3-one] | 83.12
CC1=NN(c2ccccc2)C(=O)C1Sc1nc(-c2ccc(C)cc2)cs1 (centres unmarked) [compound 21, 5-methyl-2-phenyl-4-(4-p-toluyl-thiazole-2-yl-sulfanil)-2,4-dihydro-pyrazol-3-one] | 42.07
CC1=NN(c2ccc(F)cc2)C(=O)C1C(c1ccccc1O)c1c(C)nn(-c2ccc(F)cc2)c1O (centres unmarked) [compound 22, 2-(4-fluoro-phenyl)-4-[[1-(4-fluoro-phenyl)-5-hydroxy-3-methyl-1H-pyrazol-4-yl]-(2-hydroxy-phenyl)-methyl]-5-methyl-2,4-dihydro-pyrazol-3-one] | 2.9
CC1=NN(c2ccccc2)C(=O)C1(O)S(=O)(=O)[O-].[Na+] (centres unmarked) [compound 25, sodium; 4-hydroxy-3-methyl-5-oxo-1-phenyl-4,5-dihydro-1H-pyrazol-4-sulfonate] | 38.80
CC1=NN(c2ccccc2)C(=O)C1(N1CCOCC1)N1CCOCC1 [compound 26, 5-methyl-4,4-di-morpholin-4-yl-2-phenyl-2,4-dihydro-pyrazol-3-one] | 50.68
O=C(NC1=NN(c2ccccc2)C(=O)C1(O)S(=O)(=O)[O-])c1ccccc1.[Na+] (centres unmarked) [compound 27, sodium 3-benzoylamino-4-hydroxy-5-oxo-1-phenyl-4,5-dihydro-1H-pyrazol-4-sulfonate] | 2.83
CC1=NN(c2ccccc2)C(=O)C12Sc1ccccc1C2=O (centres unmarked) [compound 28, 3-methyl-1-phenyl-5-oxo-4-spiro-(3-oxo-2,3-dihydro-benzo[b]thiophen-2-yl)-4,5-dihydro-1H-pyrazol] | 22.83
CC1=NN(c2ccccc2)C(=O)C12C(c1ccccc1)C21C(=O)N(c2ccccc2)N=C1C (centres unmarked) [compound 30, 4,10-dimethyl-2,8,11-triphenyl-2,3,8,9-tetraza-dispiro[4.0.4.1]undeca-3,9-diene-1,7-dione] | 62.43
CCOc1cc(/C=C2/C(=O)N(c3ccccc3Cl)N=C2C)ccc1O [compound 31, 2-(2-chloro-phenyl)-4-(3-ethoxy-4-hydroxy-benzylidene)-5-methyl-2,4-dihydro-pyrazol-3-one] | 15.57

Structure (SMILES) | Pentosidine production rate in 5 mM of medicament (%)
CC1=NN(c2ccccc2Cl)C(=O)/C1=C/c1ccc(N(C)C)cc1 [compound 32, 2-(2-chloro-phenyl)-4-(4-dimethylamino-benzylidene)-5-methyl-2,4-dihydro-pyrazol-3-one] | 8.7
CC1=NN(c2cccc(C(F)(F)F)c2)C(=O)/C1=C/C=C/c1ccccc1 [compound 33, 5-methyl-4-(3-phenyl-allylidene)-2-(3-trifluoromethyl-phenyl)-2,4-dihydro-pyrazol-3-one] | 80.08
CC1=NN(c2cccc(F)c2)C(=O)/C1=C\c1ccc(N(C)C)cc1 [compound 35, 4-(4-dimethylamino-benzylidene)-2-(3-fluoro-phenyl)-5-methyl-2,4-dihydro-pyrazol-3-one] | 76.31
CC1=NN(c2cccc(C(=O)O)c2)C(=O)/C1=C\c1ccc(N2CCC(Cl)=N2)cc1 [compound 36, 3-{4-[4-(3-chloro-4,5-dihydro-pyrazol-1-yl)-benzylidene]-3-methyl-5-oxo-4,5-dihydro-pyrazol-1-yl}-benzoic acid] | 26.37
O=C(O)c1cccc(N2N=C(c3ccccc3)/C(=C/c3ccccc3O)C2=O)c1 [compound 37, 3-[4-(2-hydroxy-benzylidene)-5-oxo-3-phenyl-4,5-dihydro-pyrazol-1-yl]-benzoic acid] | 0.02
CC1=NN(c2cccc(Cl)c2)C(=O)/C1=C/c1cc2ccccc2[nH]c1=O [compound 38, 3-[1-(3-chloro-phenyl)-3-methyl-5-oxo-1,5-dihydro-pyrazol-4-ylidene-methyl]-1H-quinolin-2-one] | 84.95
COC(=O)c1cccc(-c2ccc(/C=C3\C(=O)N(c4ccc(S(N)(=O)=O)cc4)N=C3C)o2)c1 [compound 39, 3-{5-[3-methyl-5-oxo-1-(4-sulfamoyl-phenyl)-1,5-dihydro-pyrazol-4-ylidene-methyl]-furan-2-yl}-benzoic acid-methyl ester] | 16.87
COC(=O)c1ccc(N2N=C(C)/C(=C/c3ccc4c(c3)OCO4)C2=O)cc1 [compound 40, 4-(4-benzo[1,3]dioxol-5-ylmethylene-3-methyl-5-oxo-4,5-dihydro-pyrazol-1-yl)-benzoic acid-methyl ester] | 32.37
COC(=O)c1ccc(N2N=C(C)/C(=C/c3ccc(-c4ccc(S(N)(=O)=O)cc4)o3)C2=O)cc1 [compound 41, 4-{3-methyl-5-oxo-4-[5-(4-sulfamoyl-phenyl)-furan-2-yl-methylene]-4,5-dihydro-pyrazol-1-yl}-benzoic acid-methyl ester] | 37.81
CC1=NN(c2ccc(Cl)cc2)C(=O)/C1=C/c1ccc(O)cc1O [compound 42, 2-(4-chloro-phenyl)-4-(2,4-dihydroxy-benzylidene)-5-methyl-2,4-dihydro-pyrazol-3-one] | 68.32
CC1=NN(c2ccc(Cl)cc2)C(=O)/C1=C/c1cccc(O)c1 [compound 43, 2-(4-chloro-phenyl)-4-(3-hydroxy-benzylidene)-5-methyl-2,4-dihydropyrazol-3-one] | 3.00
CC1=NN(c2ccc(C)cc2)C(=O)/C1=C/c1ccc(O)c(O)c1 [compound 44, 4-(3,4-dihydroxy-benzylidene)-5-methyl-2-p-toluyl-2,4-dihydro-pyrazol-3-one] | 66.19
CC(=O)c1ccc(N2N=C(C)/C(=C3\C(=O)Nc4ccccc43)C2=O)cc1 [compound 45, 3-[1-(4-acetyl-phenyl)-3-methyl-5-oxo-1,5-dihydro-pyrazol-4-ylidene]-1,3-dihydro-indol-2-one] | 19.22
CC1=NN(c2ccc(F)cc2)C(=O)/C1=C\c1c(C)nn(-c2ccccc2C)c1O [compound 46, 2-(4-fluoro-phenyl)-4-(5-hydroxy-3-methyl-1-o-toluyl-1H-pyrazol-4-yl-methylene)-5-methyl-2,4-dihydro-pyrazol-3-one] | 15.69
COc1cc(/C=C2\C(=O)N(c3ccc(Cl)cc3)N=C2C(F)(F)F)ccc1O [compound 47, 2-(4-chloro-phenyl)-4-(4-hydroxy-3-methoxy-benzylidene)-5-trifluoromethyl-2,4-dihydro-pyrazol-3-one] | 28.86
CCc1ccc(N2N=C(C)/C(=C\c3ccc(O)cc3)C2=O)cc1 [compound 48, 2-(4-ethyl-phenyl)-4-(4-hydroxy-benzylidene)-5-methyl-2,4-dihydro-pyrazol-3-one] | 0.02
